Results reported in PubChem BioAssay (NCI).
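GI50 is the concentration that inhibits growth by half. TGI marks complete inhibition of growth.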

Experiments:
Experiment in all cases: DTP human tumour cell line panel, 384-well format
CCRF-CEM leukemia = system: CCRF-CEM leukemia
HOP-62 NSCLC = system: HOP-62 NSCLC
K-562 leukemia = system: K-562 leukemia
KM12 colon = system: KM12 colon
MOLT-4 leukemia = system: MOLT-4 leukemia
NCI-H23 lung = system: NCI-H23 lung
OVCAR-4 ovarian = system: OVCAR-4 ovarian
RPMI-8226 leukemia = system: RPMI-8226 leukemia
SF-539 CNS = system: SF-539 CNS
SK-MEL-28 melanoma = system: SK-MEL-28 melanoma
SK-MEL-5 melanoma = system: SK-MEL-5 melanoma
UACC-257 melanoma = system: UACC-257 melanoma
UO-31 renal = system: UO-31 renal

With `C=CC(=O)Nc1cc(Nc2nccc(-c3cn(C)c4ccccc34)n2)c(OC)cc1N(C)CCN(C)C` the GI50 (CCRF-CEM leukemia) was 1390 nM, the TGI (CCRF-CEM leukemia) was 2690 nM and the GI50 (HOP-62 NSCLC) was 1560 nM. It also gave a TGI (HOP-62 NSCLC) of 3370 nM, a GI50 (K-562 leukemia) of 1160 nM and a TGI (K-562 leukemia) of 2390 nM. The GI50 (KM12 colon) was 2560 nM, the TGI (KM12 colon) was 5720 nM and the GI50 (MOLT-4 leukemia) was 921 nM. It also gave a TGI (MOLT-4 leukemia) of 2150 nM, a GI50 (NCI-H23 lung) of 1870 nM and a TGI (NCI-H23 lung) of 3670 nM. For the same molecule, the GI50 (OVCAR-4 ovarian) was 2020 nM, the TGI (OVCAR-4 ovarian) was 3540 nM and the GI50 (RPMI-8226 leukemia) was 980 nM. For the same molecule, the TGI (RPMI-8226 leukemia) was 2230 nM, the GI50 (SF-539 CNS) was 1440 nM and the TGI (SF-539 CNS) was 2760 nM. For the same molecule, the GI50 (SK-MEL-28 melanoma) was 1660 nM, the TGI (SK-MEL-28 melanoma) was 3040 nM and the GI50 (SK-MEL-5 melanoma) was 1220 nM. It also gave a TGI (SK-MEL-5 melanoma) of 2230 nM, a GI50 (UACC-257 melanoma) of 840 nM and a TGI (UACC-257 melanoma) of 1580 nM. It also gave a GI50 (UO-31 renal) of 746 nM and a TGI (UO-31 renal) of 2120 nM.

Work on `Cn1cc(-c2cc3c(N4CCN(c5ncc([C@@](C)(N)c6ccc(F)cc6)cn5)CC4)ncnn3c2)cn1` yielded a GI50 (CCRF-CEM leukemia) of 2780 nM, a TGI (CCRF-CEM leukemia) of 10200 nM and a GI50 (HOP-62 NSCLC) of 3140 nM. For the same molecule, the TGI (HOP-62 NSCLC) was > 50100 nM, the GI50 (K-562 leukemia) was 1120 nM and the TGI (K-562 leukemia) was 2790 nM. It also gave a GI50 (KM12 colon) of 4110 nM, a TGI (KM12 colon) of 28100 nM and a GI50 (MOLT-4 leukemia) of 1380 nM. It also gave a TGI (MOLT-4 leukemia) of 2730 nM, a GI50 (NCI-H23 lung) of 2230 nM and a TGI (NCI-H23 lung) of 14200 nM. The GI50 (OVCAR-4 ovarian) was 2960 nM, the TGI (OVCAR-4 ovarian) was 12200 nM and the GI50 (RPMI-8226 leukemia) was 1590 nM. The TGI (RPMI-8226 leukemia) was 3210 nM, the GI50 (SF-539 CNS) was 2170 nM and the TGI (SF-539 CNS) was 12200 nM. It also gave a GI50 (SK-MEL-28 melanoma) of 6900 nM, a TGI (SK-MEL-28 melanoma) of 19700 nM and a GI50 (SK-MEL-5 melanoma) of 1850 nM. The TGI (SK-MEL-5 melanoma) was 3980 nM, the GI50 (UACC-257 melanoma) was 2100 nM and the TGI (UACC-257 melanoma) was 4760 nM. It also gave a GI50 (UO-31 renal) of 3600 nM and a TGI (UO-31 renal) of 14700 nM.
